Results taken from publication PMC9516332 (Frontiers in Oncology, 2022).
Read-outs that look alike come from different tables or passages of the source.

What was measured:
Experiment in all cases: Kinase panel profiling at 1 µmol/L (MSA or IMAP), percentage inhibition
Assay type in all cases: biochemical
[1] = target: T1, panel of 255 wild-type kinases (Homo sapiens, UniProt Q13043); details: read-out: %-inhibition, MST1
T1 sequence (Q13043 1-487): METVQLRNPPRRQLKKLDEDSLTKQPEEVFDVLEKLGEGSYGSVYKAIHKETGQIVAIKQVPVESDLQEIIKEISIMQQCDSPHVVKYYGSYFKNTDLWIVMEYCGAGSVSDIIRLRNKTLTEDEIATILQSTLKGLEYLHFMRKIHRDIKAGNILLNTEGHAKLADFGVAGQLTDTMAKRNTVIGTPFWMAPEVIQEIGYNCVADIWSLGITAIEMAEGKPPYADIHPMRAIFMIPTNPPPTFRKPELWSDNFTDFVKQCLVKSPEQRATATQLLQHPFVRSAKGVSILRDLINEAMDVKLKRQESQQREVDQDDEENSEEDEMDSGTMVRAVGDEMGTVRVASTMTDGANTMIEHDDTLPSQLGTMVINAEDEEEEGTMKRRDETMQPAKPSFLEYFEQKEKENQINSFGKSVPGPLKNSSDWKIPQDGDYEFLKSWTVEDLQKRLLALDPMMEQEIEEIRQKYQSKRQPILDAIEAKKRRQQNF

[2] = target: T2, panel of 255 wild-type kinases (Homo sapiens, UniProt Q13188); details: read-out: %-inhibition, MST2
T2 sequence (Q13188 1-491): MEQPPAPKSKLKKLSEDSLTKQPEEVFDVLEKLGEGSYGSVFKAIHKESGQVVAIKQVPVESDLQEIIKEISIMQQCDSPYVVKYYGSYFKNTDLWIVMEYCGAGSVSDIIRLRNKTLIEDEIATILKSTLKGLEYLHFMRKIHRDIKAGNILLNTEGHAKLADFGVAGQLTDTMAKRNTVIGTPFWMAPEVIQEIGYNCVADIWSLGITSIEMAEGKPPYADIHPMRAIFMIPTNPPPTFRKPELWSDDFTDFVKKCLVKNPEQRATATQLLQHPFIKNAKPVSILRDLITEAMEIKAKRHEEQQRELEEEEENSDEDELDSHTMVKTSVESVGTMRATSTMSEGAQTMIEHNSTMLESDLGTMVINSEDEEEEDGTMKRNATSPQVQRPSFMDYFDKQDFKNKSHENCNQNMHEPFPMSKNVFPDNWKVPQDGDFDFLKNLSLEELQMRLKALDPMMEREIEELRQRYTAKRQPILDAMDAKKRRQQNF

[3] = target: panel of 255 wild-type kinases (Homo sapiens, UniProt P51957); details: read-out: %-inhibition, NEK4
[4] = target: T3, panel of 255 wild-type kinases (Homo sapiens, UniProt P53778); details: read-out: %-inhibition, p38γ
T3 sequence (P53778 1-367): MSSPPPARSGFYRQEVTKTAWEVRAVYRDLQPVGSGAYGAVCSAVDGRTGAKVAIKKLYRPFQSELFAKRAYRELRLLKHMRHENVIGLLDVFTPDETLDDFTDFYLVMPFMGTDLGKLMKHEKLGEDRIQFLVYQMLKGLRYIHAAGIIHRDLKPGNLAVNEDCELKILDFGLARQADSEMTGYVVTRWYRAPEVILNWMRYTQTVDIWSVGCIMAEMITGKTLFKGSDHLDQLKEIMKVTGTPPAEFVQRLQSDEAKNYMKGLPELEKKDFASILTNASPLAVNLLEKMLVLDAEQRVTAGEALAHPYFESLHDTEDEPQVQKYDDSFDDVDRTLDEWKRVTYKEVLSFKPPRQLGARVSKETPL

[5] = target: T4, panel of 255 wild-type kinases (Homo sapiens, UniProt P36888); details: read-out: %-inhibition at 1 µmol/L, FLT3
T4 sequence (P36888 27-993): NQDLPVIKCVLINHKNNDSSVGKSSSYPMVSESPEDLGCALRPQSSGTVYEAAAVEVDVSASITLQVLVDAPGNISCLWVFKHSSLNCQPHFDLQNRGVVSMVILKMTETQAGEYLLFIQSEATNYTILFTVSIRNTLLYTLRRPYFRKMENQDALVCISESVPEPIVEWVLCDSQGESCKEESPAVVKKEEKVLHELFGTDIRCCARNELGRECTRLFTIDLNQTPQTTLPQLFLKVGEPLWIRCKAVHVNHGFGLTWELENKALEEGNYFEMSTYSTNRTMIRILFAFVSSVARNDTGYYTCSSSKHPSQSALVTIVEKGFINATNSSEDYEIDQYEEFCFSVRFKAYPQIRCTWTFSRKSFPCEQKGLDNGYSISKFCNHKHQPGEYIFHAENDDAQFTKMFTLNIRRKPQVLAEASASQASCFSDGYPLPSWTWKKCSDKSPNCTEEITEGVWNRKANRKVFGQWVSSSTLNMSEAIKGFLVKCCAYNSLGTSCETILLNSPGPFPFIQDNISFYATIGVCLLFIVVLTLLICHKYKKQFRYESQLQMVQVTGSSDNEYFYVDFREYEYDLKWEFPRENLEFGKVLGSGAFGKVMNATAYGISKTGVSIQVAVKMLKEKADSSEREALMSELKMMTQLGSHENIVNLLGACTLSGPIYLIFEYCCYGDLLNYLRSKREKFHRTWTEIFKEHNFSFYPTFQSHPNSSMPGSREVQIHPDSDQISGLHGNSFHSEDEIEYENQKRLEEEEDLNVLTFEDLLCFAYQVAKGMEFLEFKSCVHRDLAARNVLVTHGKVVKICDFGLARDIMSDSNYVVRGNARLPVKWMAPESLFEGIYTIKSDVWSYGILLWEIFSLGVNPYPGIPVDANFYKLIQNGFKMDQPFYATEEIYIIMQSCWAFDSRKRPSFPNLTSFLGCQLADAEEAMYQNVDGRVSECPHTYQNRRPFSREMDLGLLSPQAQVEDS

[6] = target: panel of 255 wild-type kinases (Homo sapiens, UniProt Q16816); details: read-out: %-inhibition at 1 µmol/L, PHKG1
[7] = MST1, 1 µmol/L single concentration
[8] = MST2, 1 µmol/L single concentration
[9] = NEK4, 1 µmol/L single concentration
[10] = p38γ, 1 µmol/L single concentration
[11] = kinase FLT3, 1 µmol/L single concentration
[12] = kinase PHKG1, 1 µmol/L single concentration

| inhibition at 1 µM [5, 11] | SMILES | inhibition at 1 µM [1, 7] | inhibition at 1 µM [2, 8] | inhibition at 1 µM [3, 9] | inhibition at 1 µM [4, 10] | inhibition at 1 µM [6, 12] | inhibition at 1 µM [1] | inhibition at 1 µM [2] | inhibition at 1 µM [3] | inhibition at 1 µM [4] | inhibition at 1 µM [5] | inhibition at 1 µM [6] |
| --- | --- | --- | --- | --- | --- | --- | --- | --- | --- | --- | --- | --- |
| 10% | C[C@H](Nc1ncnc2nc[nH]c12)c1cc2cccc(Cl)c2c(=O)n1-c1ccccc1 [duvelisib] | 10% | 4% | -2.34% | -4% | -1.8% |  |  |  |  |  |  |
|  | CCN1CCN(c2ccc(Nc3cc(N(C)C(=O)Nc4c(Cl)c(OC)cc(OC)c4Cl)ncn3)cc2)CC1 [infigratinib] | 1.11% | -2.14% | 13% | -3% | 0.355% |  |  |  |  |  |  |
|  | CNC(=O)c1ccc(-c2cnc3ncc(Cc4ccc5ncccc5c4)n3n2)cc1F [capmatinib] |  |  |  |  |  | -2% | -3.3% | 2% | -1.26% | 50% | -2.39% |
| 6% | O=C(Nc1cnn2ccc(N3CCC[C@@H]3c3cc(F)ccc3F)nc12)N1CC[C@H](O)C1 [larotrectinib] | -4% | 0.182% | 0.695% | 2.3% | 1.81% |  |  |  |  |  |  |
|  | CN1CCN(c2ccc(C(=O)Nc3n[nH]c4ccc(Cc5cc(F)cc(F)c5)cc34)c(NC3CCOCC3)c2)CC1 [entrectinib] | 92% | 35% | 1.25% | -3% | 54% |  |  |  |  |  |  |
| 12% | Cn1cnc2c(F)c(Nc3ccc(Br)cc3F)c(C(=O)NOCCO)cc21 [binimetinib] | -6.46% | -1.64% | -1.67% | 2% | 1.77% |  |  |  |  |  |  |
| 99% | COc1ccc(CN2C3CC2CN(c2ccc(-c4cc(OCC(C)(C)O)cn5ncc(C#N)c45)cn2)C3)cn1 [selpercatinib] | -2.33% | 0.47% | 0.858% | 0.277% | 8% |  |  |  |  |  |  |
| 6% | Cc1nc(NC(=O)N2CCC[C@H]2C(N)=O)sc1-c1ccnc(C(C)(C)C(F)(F)F)c1 [alpelisib] | 5% | 1.52% | -3% | -6% | -1.22% |  |  |  |  |  |  |
| 48% | Cc1cc(Nc2ncnc3ccc(NC4=NC(C)(C)CO4)cc23)ccc1Oc1ccn2ncnc2c1 [tucatinib] | 4% | -1.17% | 2.39% | -1.75% | -3.62% |  |  |  |  |  |  |
| 52% | Cn1cnc2c(F)c(Nc3ccc(Br)cc3Cl)c(C(=O)NOCCO)cc21 [selumetinib] | -2.38% | -2.14% | 3.45% | -1.75% | -0.945% |  |  |  |  |  |  |
| 56% | COc1cc2ncnc(Nc3ccc(F)c(Cl)c3)c2cc1NC(=O)/C=C/CN1CCCCC1 [dacomitinib] | 2.73% | 2% | -2.15% | 0.231% | 25% |  |  |  |  |  |  |
| 101% | CO[C@]1(C(=O)N[C@@H](C)c2ccc(-n3cc(F)cn3)nc2)CC[C@H](c2nc(C)cc(Nc3cc(C)[nH]n3)n2)CC1 [pralsetinib] | 19% | 5.55% | 2.56% | -1.77% | 1.67% |  |  |  |  |  |  |

| SMILES | inhibition at 1 µM [5, 11] | inhibition at 1 µM [1, 7] | inhibition at 1 µM [2, 8] | inhibition at 1 µM [3, 9] | inhibition at 1 µM [4, 10] | inhibition at 1 µM [6, 12] | inhibition at 1 µM [1] | inhibition at 1 µM [2] | inhibition at 1 µM [3] | inhibition at 1 µM [4] | inhibition at 1 µM [5] | inhibition at 1 µM [6] |
| --- | --- | --- | --- | --- | --- | --- | --- | --- | --- | --- | --- | --- |
| COC(=O)N[C@@H](C)CNc1nccc(-c2cn(C(C)C)nc2-c2cc(Cl)cc(NS(C)(=O)=O)c2F)n1 [encorafenib] | 9% | 0.835% | 3% | 4.44% | 3.2% | 3% |  |  |  |  |  |  |
| FC(F)(F)c1ccc(CNc2ccc(Cc3c[nH]c4ncc(Cl)cc34)cn2)cn1 [pexidartinib] | 55% | 25% | 10% | 2.69% | 2.47% | 21% |  |  |  |  |  |  |
| CCc1nc(C(N)=O)c(Nc2ccc(N3CCC(N4CCN(C)CC4)CC3)c(OC)c2)nc1NC1CCOCC1 [gilteritinib] | 99% | 92% | 14% | 50% | -0.507% | 92% |  |  |  |  |  |  |
| CCn1c(=O)c(-c2cc(NC(=O)Nc3ccccc3)c(F)cc2Br)cc2cnc(NC)cc21 [ripretinib] | 46% | 3% | 0.11% | 19% | 0.893% | 1.76% |  |  |  |  |  |  |
| C[C@H]1Oc2cc(cnc2N)-c2c(nn(C)c2C#N)CN(C)C(=O)c2ccc(F)cc21 [lorlatinib] | 13% | 28% | 8% | -0.571% | -4.48% | 65% |  |  |  |  |  |  |
| CCN1C(=O)N(c2c(F)c(OC)cc(OC)c2F)Cc2cnc3[nH]c(CN4CCOCC4)cc3c21 [pemigatinib] | 8% | 6% | 7% | 6.33% | 1.73% | 6% |  |  |  |  |  |  |
| C=CC(=O)N1CCC([C@@H]2CCNc3c(C(N)=O)c(-c4ccc(Oc5ccccc5)cc4)nn32)CC1 [zanubrutinib] | 22% | -3% | 1.56% | 1% | 4% | 2.38% |  |  |  |  |  |  |
| Cn1cc(-c2cc3c(N4CCN(c5ncc([C@@](C)(N)c6ccc(F)cc6)cn5)CC4)ncnn3c2)cn1 [avapritinib] | 100% | 5.32% | 0.434% | 12% | -0.867% | -0.381% |  |  |  |  |  |  |
